Patent US12290519B2, “Anti-inflammatory coupling compound drug, and preparation method therefor and use thereof” (COVAL BIOPHARMA (SHANGHAI) CO., LTD., priority 2021, dated 2025)

Assay: Hydrolysis rate / drug release rate of the compounds (release of JAK inhibitor, HPLC)
Format: physicochemical
Conditions: % release of JAK inhibitor from sample in acetonitrile/water=7/3 (v/v), 37° C. constant temperature shaker, sampled days 1-4, HPLC
Summary of the method: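 HPLC quantified parent JAK inhibitor freed from each compound, calibrated with 0.0002–0.08 mg/mL standards. Samples in acetonitrile/water 7/3 were kept sealed at 37° C and analysed at day 0 and on days 1 to 4. % release was computed from sample weight, curve slope/intercept and the molecular-weight ratio.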

Row | SMILES | Release Rate (%/day)
1 | CNS(=O)(=O)C[C@H]1CC[C@H](N(C)c2ncnc3c2ccn3C(=O)Cc2ccc(NC(C)=O)cc2)CC1 [Ex. 58, N-(4-(2-(4-(methyl ((trans)-4-((N-methylsulfamoyl)methyl)cyclohexyl)amino)-7H-pyrrolo [2,3-d]pyrimidin-7-yl)-2-oxoethyl)phenyl) acetamide] | 12.46
2 | CC(C)Cc1ccc([C@H](C)C(=O)OCn2ccc3c(N4CC[C@]5(C4)[C@@H](C)CN5C(=O)CC#N)ncnc32)cc1 [Ex. 144, (4-((3S, 4R)-1-(2-cyanoacetyl)-3-methyl-1,6-diazaspiro [3.4]octan-6-yl)-7H-pyrrolo [2,3-d]pyrimidin-7-yl) methyl (S)-2-(4-isobutylphenyl) propanoate] | 0.05
3 | CNS(=O)(=O)C[C@H]1CC[C@H](N(C)c2ncnc3c2ccn3C(=O)c2ccccc2Nc2cccc(C)c2C)CC1 [Ex. 43, 1-((trans)-4-((7-(2-((2,3-dimethylphenyl)amino)benzoyl)-7H-pyrrolo [2,3-d]pyrimidin-4-yl) (methyl)amino)cyclohexyl)-N-methyl methanesulfonamide] | 2.99
4 | CC(C(=O)n1ccc2c(-c3cnn([C@H](CC#N)C4CCCC4)c3)ncnc21)c1ccc(CC2CCCC2=O)cc1 (stereo partly drawn) [Ex. 77, (3R)-3-cyclopentyl-3-(4-(7-(2-(4-((2-oxocyclopentyl)methyl)phenyl)propanoyl)-7H-pyrrolo [2,3-d]pyrimidin-4-yl)-1H-pyrazol-1-yl) propanenitrile] | 3.69
5 | CC(C(=O)n1ccc2c(-c3cnn([C@H](CC#N)C4CCCC4)c3)ncnc21)c1ccc(-c2ccccc2)c(F)c1 (stereo partly drawn) [Ex. 33, (3R)-3-cyclopentyl-3-(4-(7-(2-(2-fluoro-[1, 1′-biphenyl]-4-yl)propanoyl)-7H-pyrrolo [2,3-d]pyrimidin-4-yl)-1H-pyrazol-1-yl) propanenitrile] | 5.01
6 | Cc1c(Cl)cccc1Nc1ccccc1C(=O)n1ccc2c(-c3cnn([C@H](CC#N)C4CCCC4)c3)ncnc21 [Ex. 57, (R)-3-(4-(7-(2-((3-chloro-2-methylphenyl)amino)benzoyl)-7H-pyrrolo [2,3-d]pyrimidin-4-yl)-1H-pyrazol-1-yl)-3-cyclopentylpropanenitrile] | 0.57
7 | CNS(=O)(=O)C[C@H]1CC[C@H](N(C)c2ncnc3c2ccn3COC(=O)C(C)c2cccc(C(=O)c3ccccc3)c2)CC1 (stereo partly drawn) [Ex. 90, (4-(Methyl ((trans)-4-((N-methylsulfamoyl)methyl)cyclohexyl)amino)-7H-pyrrolo [2,3-d]pyrimidin-7-yl) methyl 2-(3-benzoylphenyl) propanoate] | 0.35
8 | CCS(=O)(=O)N1CC(CC#N)(n2cc(-c3ncnc4c3ccn4COC(=O)c3ccccc3Nc3cccc(C)c3C)cn2)C1 [Ex. 83, Methyl (4-(1-(3-(cyanomethyl)-1-(ethylsulfonyl)azetidin-3-yl)-1H-pyrazol-4-yl)-7H-pyrrolo [2,3-d]pyrimidin-7-yl) 2-((2,3-dimethylphenyl)amino) benzoate] | 0.003
9 | CCC(C(=O)n1ccc2c1ncc1ncc([C@H]3CN(C(=O)NCC(F)(F)F)C[C@H]3CC)n12)c1ccc(N2Cc3ccccc3C2=O)cc1 (stereo partly shown) [Ex. 138] | 2.15
10 | CCS(=O)(=O)N1CC(CC#N)(n2cc(-c3ncnc4c3ccn4COC(=O)Cc3ccccc3Nc3c(Cl)cccc3Cl)cn2)C1 [Ex. 70, Methyl (4-(1-(3-(cyanomethyl)-1-(ethylsulfonyl)azetidin-3-yl)-1H-pyrazol-4-yl)-7H-pyrrolo [2,3-d]pyrimidin-7-yl) 2-(2-((2,6-dichlorophenyl)amino)phenyl) acetate] | 0.42
11 | CCS(=O)(=O)N1CC(CC#N)(n2cc(-c3ncnc4c3ccn4COC(=O)C(C)c3cccc(Oc4ccccc4)c3)cn2)C1 (stereo not shown) [Ex. 71, Methyl (4-(1-(3-(cyanomethyl)-1-(ethylsulfonyl)azetidin-3-yl)-1H-pyrazol-4-yl)-7H-pyrrolo [2,3-d]pyrimidin-7-yl) 2-(3-phenoxyphenyl) propanoate] | 0.01
12 | COc1ccc2cc([C@H](C)C(=O)OCn3ccc4c(N(C)[C@H]5CN(C(=O)CC#N)CC[C@H]5C)ncnc43)ccc2c1 [Ex. 48, 4-(((3R, 4R)-1-(2-cyanoacetyl)-4-methylpiperidin-3-yl) (methyl)amino)-7H-pyrrolo [2,3-d] pyrimidin-7-yl) methyl (S)-2-(6-methoxynaphthalen-2-yl) propanoate] | 0.03
13 | CC(C(=O)OCn1ccc2c(N(C)[C@H]3CN(C(=O)CC#N)CC[C@H]3C)ncnc21)c1cccc(C(=O)c2ccccc2)c1 (stereo partly drawn) [Ex. 49, (4-(((3R, 4R)-1-(2-cyanoacetyl)-4-methylpiperidin-3-yl) (methyl)amino)-7H-pyrrolo [2,3-d]pyrimidin-7-yl) methyl 2-(3-benzoylphenyl) propanoate] | 0.11
14 | CC(=O)Oc1ccccc1C(=O)n1ccc2c(N(C)[C@H]3CN(C(=O)CC#N)CC[C@H]3C)ncnc21 [Ex. 15, 2-(4-((3R, 4R)-1-(2-cyanoacetyl)-4-methylpiperidin-3-yl) (methyl)amino)-7H-pyrrolo[2,3-d] pyrimidine-7-carbonyl)phenyl acetate] | 1.86
15 | CCS(=O)(=O)N1CC(CC#N)(n2cc(-c3ncnc4c3ccn4COC(=O)[C@@H](NC(=O)OC(C)(C)C)c3ccccc3)cn2)C1 [Ex. 74, Methyl (4-(1-(3-(cyanomethyl)-1-(ethylsulfonyl)azetidin-3-yl)-1H-pyrazol-4-yl)-7H-pyrrolo [2,3-d]pyrimidin-7-yl) (S)-2-((tert-butoxycarbonyl)amino)-2-phenylacetate] | 0.44
16 | CCS(=O)(=O)N1CC(CC#N)(n2cc(-c3ncnc4c3ccn4COC(=O)Cc3c(C)n(C(=O)c4ccc(Cl)cc4)c4ccc(OC)cc34)cn2)C1 [Ex. 73, Methyl (4-(1-(3-(cyanomethyl)-1-(ethylsulfonyl)azetidin-3-yl)-1H-pyrazol-4-yl)-7H-pyrrolo [2,3-d]pyrimidin-7-yl) 2-(1-(4-chlorobenzoyl)-5-methoxy-2-methyl-1H-indol-3-yl) acetate] | 0.2
17 | CC(C(=O)n1ccc2c(N(C)[C@H]3CN(C(=O)CC#N)CC[C@H]3C)ncnc21)c1cccc(C(=O)c2ccccc2)c1 (stereo partly drawn) [Ex. 7, 3-((3R,4R)-3-((7-(2-(3-benzoylphenyl)propanoyl)-7H-pyrrolo[2,3-d]pyrimidin-4-yl) (methyl)amino)-4-methylpiperidin-1-yl)-3-oxopropanenitrile] | 15.65
18 | COc1ccc2c(c1)c(CC(=O)OCn1ccc3c(N(C)[C@H]4CN(C(=O)CC#N)CC[C@H]4C)ncnc31)c(C)n2C(=O)c1ccc(Cl)cc1 [Ex. 55, (4-(((3R, 4R)-1-(2-cyanoacetyl)-4-methylpiperidin-3-yl) (methyl)amino)-7H-pyrrolo [2,3-d]pyrimidin-7-yl) methyl 2-(1-(4-chlorobenzoyl)-5-methoxy-2-methyl-1H-indol-3-yl) acetate] | 0.16
19 | CCS(=O)(=O)N1CC(CC#N)(n2cc(-c3ncnc4c3ccn4COC(=O)Cc3ccc(NC(C)=O)cc3)cn2)C1 [Ex. 84, Methyl (4-(1-(3-(cyanomethyl)-1-(ethylsulfonyl)azetidin-3-yl)-1H-pyrazol-4-yl)-7H-pyrrolo [2,3-d]pyrimidin-7-yl) 2-(4-acetamidophenyl) acetate] | 0.06
20 | CCS(=O)(=O)N1CC(CC#N)(n2cc(-c3ncnc4c3ccn4C(=O)[C@@H](C)c3ccc4cc(OC)ccc4c3)cn2)C1 [Ex. 18, (S)-2-(1-(ethylsulfonyl)-3-(4-(7-(2-(6-methoxynaphthalen-2-yl)propanoyl)-7H-pyrrolo [2,3-d]pyrimidin-4-yl)-1H-pyrazol-1-yl)azetidin-3-yl) acetonitrile] | 2.97
21 | COc1ccc2cc([C@H](C)C(=O)n3ccc4c(-c5cnn([C@H](CC#N)C6CCCC6)c5)ncnc43)ccc2c1 [Ex. 31] | 3.08
22 | CNS(=O)(=O)CC1CCC(N(C)c2ncnc3c2ccn3COC(=O)C(C)c2ccc(-c3ccccc3)c(F)c2)CC1 (stereo not drawn) [Ex. 113, (4-(Methyl ((trans)-4-((N-methylsulfamoyl)methyl)cyclohexyl)amino)-7H-pyrrolo [2,3-d]pyrimidin-7-yl) methyl 2-(2-fluoro-[1, 1′-biphenyl]-4-yl) propanoate] | 0.42
23 | CC(C(=O)OCn1ccc2c(N(C)[C@H]3CN(C(=O)CC#N)CC[C@H]3C)ncnc21)c1ccc(CC2CCCC2=O)cc1 (stereo partly drawn) [Ex. 53, (4-(((3R, 4R)-1-(2-cyanoacetyl)-4-methylpiperidin-3-yl) (methyl)amino)-7H-pyrrolo [2,3-d]pyrimidin-7-yl) methyl 2-(4-((2-oxocyclopentyl)methyl)phenyl) propanoate] | 0.06
24 | CC[C@@H]1CN(C(=O)NCC(F)(F)F)C[C@@H]1c1cnc2cnc3c(ccn3C(=O)c3ccccc3Nc3cccc(Cl)c3C)n12 [Ex. 130, (3R, 4S)-3-(3-(2-((3-chloro-2-methylphenyl)amino)benzoyl)-3H-imidazo [1,2-a]pyrrolo [2,3-e]pyrazin-8-yl)-4-ethyl-N-(2,2,2-trifluoroethyl) pyrrolidine-1-carboxamide] | 11.67
25 | CCS(=O)(=O)N1CC(CC#N)(n2cc(-c3ncnc4c3ccn4C(=O)C(C)c3ccc(-c4ccccc4)c(F)c3)cn2)C1 (stereo not shown) [Ex. 20, 2-(1-(ethylsulfonyl)-3-(4-(7-(2-(2-fluoro-[1, 1′-biphenyl]-4-yl)propanoyl)-7H-pyrrolo [2,3-d]pyrimidin-4-yl)-1H-pyrazol-1-yl)azetidin-3-yl) acetonitrile] | 5.06
